Laboratory results: patent publication US6924302B2, “Substituted triazole diamine derivatives as kinase inhibitors” (Ortho McNeil Pharmaceutical, Inc., priority 2000, dated 2005)
Like-named read-outs stand apart in the source and are kept apart here.

Tests used:
[1] = biological target: T1, Calmodulin Kinase (calmodulin-dependent protein kinase 2) (Rattus norvegicus, UniProt P11275); assay: Kinase Selectivity Assay Calmodulin Kinase; type: biochemical; conditions: Kinase Selectivity, Tables 2a-2k; read-out: Calmodulin Kinase 2 IC50
T1 construct: a truncated version of the alpha subunit of the rat protein; purchased New England Biolabs 6060; host or cells: insect cells
In short: (§1)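 Inhibition was measured as reduced ^33P-γ-ATP labelling of a biotinylated peptide substrate immobilized on streptavidin plates after one hour at 30° C.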

[2] = test system: A375 malignant melanoma; assay: Inhibition of Cell Proliferation (14C-thymidine incorporation), A375; type: cell-based; conditions: Homo sapiens, A-375, A375 cell line
In short: (§2)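 3000-8000 cells/well, 24 h preculture; cmpd in DMSO 24 h; + 0.2 uCi/well methyl 14C-thymidine (56 mCi/mmol) 24 h with drug; 37° C, 5% CO2; PBS wash x2; scintillation count of label incorporated; DMSO controls.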

[3] = biological target: T2, Glycogen Synthase Kinase-3 (beta isoform) (Oryctolagus cuniculus, UniProt G1T8E2); assay: Kinase Selectivity Assay Glycogen Synthase Kinase-3; type: biochemical, rabbit
T2 construct: purchased New England Biolabs 6040; host or cells: E. coli
In short: as §1

[4] = biological target: T3, Protein Kinase A (Bos taurus, UniProt P00517); assay: Kinase Selectivity Assay Protein Kinase A; type: biochemical, bovine; conditions: Kinase Selectivity, Tables 2a-2k; read-out: PKA IC50
T3 construct: purified from bovine heart; purchased Upstate Biotech 14-114; host or cells: bovine heart
In short: as §1

[5] = test system: PC-3 prostate adenocarcinoma; assay: Inhibition of Cell Proliferation (14C-thymidine incorporation), PC-3; type: cell-based; conditions: Homo sapiens, PC-3 cell line
In short: as §2

[6] = test system: HCT-116 colon carcinoma; assay: Inhibition of Cell Proliferation (14C-thymidine incorporation), HCT-116; type: cell-based; conditions: Homo sapiens, HCT-116 cell line
In short: as §2

[7] = biological target: T4, Casein Kinase 1 (CK1 delta isoform) (Rattus norvegicus, UniProt Q06486); assay: Kinase Selectivity Assay Casein Kinase 1; type: biochemical; conditions: Tables 2a-2k, read-out: Caseine Kinase 1 IC50
T4 construct: a truncation at amino acid 318 of the C-terminal portion of the rat CK1 delta isoform; purchased New England Biolabs 6030; host or cells: E. coli
T4 sequence (Q06486 1-317): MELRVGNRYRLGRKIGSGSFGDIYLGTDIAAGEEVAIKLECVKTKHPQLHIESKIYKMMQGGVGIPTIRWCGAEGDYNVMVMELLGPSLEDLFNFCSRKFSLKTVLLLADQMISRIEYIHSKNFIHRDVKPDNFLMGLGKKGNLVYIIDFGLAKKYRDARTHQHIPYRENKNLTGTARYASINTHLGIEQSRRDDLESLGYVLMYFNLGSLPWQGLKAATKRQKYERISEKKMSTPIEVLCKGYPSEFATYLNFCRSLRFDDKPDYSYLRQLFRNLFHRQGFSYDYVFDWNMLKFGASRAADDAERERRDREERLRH
In short: as §1

[8] = biological target: T5, HER2 (human epidermal growth factor receptor-2) (Homo sapiens, UniProt P04626); assay: Kinase Selectivity Assay HER2; type: biochemical
T5 construct: begins at amino acid 676 followed by the remainder of the HER2 cytoplasmic domain; polyhistidine (N)
In short: as §1

[9] = Kinase Selectivity, Tables 2a-2k, read-out: GSK-3 IC50
[10] = Kinase Selectivity, Tables 2a-2k, read-out: HER2 Kinase IC50

T5 sequence (P04626 676-1255 limits assumed): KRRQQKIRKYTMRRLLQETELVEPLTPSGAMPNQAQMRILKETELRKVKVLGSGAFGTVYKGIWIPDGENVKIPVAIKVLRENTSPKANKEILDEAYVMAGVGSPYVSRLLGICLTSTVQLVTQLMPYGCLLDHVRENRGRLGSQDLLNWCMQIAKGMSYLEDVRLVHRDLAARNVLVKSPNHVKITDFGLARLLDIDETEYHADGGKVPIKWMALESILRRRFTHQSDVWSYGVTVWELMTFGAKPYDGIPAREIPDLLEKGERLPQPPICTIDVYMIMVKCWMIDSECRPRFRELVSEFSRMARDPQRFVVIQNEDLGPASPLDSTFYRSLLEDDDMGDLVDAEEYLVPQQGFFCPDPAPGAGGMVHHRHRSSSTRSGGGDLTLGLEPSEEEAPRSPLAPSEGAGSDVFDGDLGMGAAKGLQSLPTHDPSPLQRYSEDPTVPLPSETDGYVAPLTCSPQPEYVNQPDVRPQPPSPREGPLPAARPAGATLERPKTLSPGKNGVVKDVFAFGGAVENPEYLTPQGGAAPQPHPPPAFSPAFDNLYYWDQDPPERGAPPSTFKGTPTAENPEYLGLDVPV
T2 sequence (G1T8E2 1-432): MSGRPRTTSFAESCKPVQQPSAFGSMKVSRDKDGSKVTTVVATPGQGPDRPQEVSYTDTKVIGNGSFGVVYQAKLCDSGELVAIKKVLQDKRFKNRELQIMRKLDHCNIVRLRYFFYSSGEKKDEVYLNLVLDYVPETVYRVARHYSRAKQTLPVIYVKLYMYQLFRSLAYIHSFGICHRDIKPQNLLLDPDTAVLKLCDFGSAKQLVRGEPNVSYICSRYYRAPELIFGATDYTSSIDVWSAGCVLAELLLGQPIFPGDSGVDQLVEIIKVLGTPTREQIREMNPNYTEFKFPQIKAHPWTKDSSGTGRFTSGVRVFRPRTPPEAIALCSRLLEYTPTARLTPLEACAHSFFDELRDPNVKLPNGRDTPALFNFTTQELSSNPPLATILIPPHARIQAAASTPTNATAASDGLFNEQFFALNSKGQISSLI

`Nc1nc(Nc2ccc(S(N)(=O)=O)cc2)nn1C(=O)c1c(F)cccc1F` [Cpd 1, 4-[[5-amino-1-(2,6-difluorobenzoyl)-1H-1,2,4-triazol-3-yl]amino]-benzenesulfonamide] showed an IC50 [1] greater than 100 µM, an IC50 [2] of 447 nM and an IC50 [3] of 0.041 µM. The IC50 [4] was greater than 100 µM, the IC50 [5] was 119 nM and the IC50 [6] was 254 nM.
`Nc1nc(Nc2ccc(S(N)(=O)=O)cc2)nn1C(=O)c1cccs1` [Cpd 14, 4-[[5-amino-1-(2-thienylcarbonyl)-1H-1,2,4-triazol-3-yl]amino]-benzenesulfonamide] gave an IC50 [1] of 60.4 µM, an IC50 [2] of 26500 nM and an IC50 [3, 9] of 0.003 µM. The IC50 [7] was 0.348 µM, the IC50 [4] was 5.43 µM and the IC50 [5] was 157 nM. It also gave an IC50 [6] of 1940 nM.
`Nc1nc(Nc2ccc(S(N)(=O)=O)cc2)nn1C(=O)c1sccc1F` [Cpd 16, 4-[[5-amino-1-[(3-fluoro-2-thienyl)carbonyl]-1H-1,2,4-triazol-3-yl]amino]-benzenesulfonamide] was tested, and the IC50 [1] was greater than 100 µM, the IC50 [2] was 942 nM and the IC50 [3, 9] was 0.004 µM. The IC50 [7] was 0.214 µM, the IC50 [5] was 368 nM and the IC50 [6] was 213 nM.
`Nc1nc(Nc2ccc(S(N)(=O)=O)cc2)nn1C(=O)c1sccc1Cl` [Cpd 17, 4-[[5-amino-1-[(3-chloro-2-thienyl)carbonyl]-1H-1,2,4-triazol-3-yl]amino]-benzenesulfonamide] showed an IC50 [1] of 2.8 µM, an IC50 [2] of 4970 nM and an IC50 [3, 9] of 0.009 µM. It also gave an IC50 [7] of 0.643 µM, an IC50 [5] of 294 nM and an IC50 [6] of 309 nM.
Compound `Nc1nc(Nc2ccc(S(=O)(=O)N3CCCCC3)cc2)nn1C(=O)c1cccs1` [Cpd 23, N^3-[4-(1-piperidinylsulfonyl)phenyl]-1-(2-thienylcarbonyl)-1H-1,2,4-triazole-3,5-diamine] has an IC50 [1] of 10.5 µM, an IC50 [2] of 424 nM and an IC50 [3, 9] of 0.016 µM. It also gave an IC50 [7] of 0.113 µM, an IC50 [4] greater than 100 µM and an IC50 [5] of 859 nM. For the same compound, the IC50 [6] was 376 nM.
`Nc1nc(Nc2ccc(S(N)(=O)=O)cc2)nn1C(=O)c1ccsc1` [Cpd 30, 4-[[5-amino-1-(3-thienylcarbonyl)-1H-1,2,4-triazol-3-yl]amino]-benzenesulfonamide] showed an IC50 [1] of 88.3 µM, an IC50 [2] of 8240 nM and an IC50 [3, 9] of 0.014 µM. The IC50 [7] was 1.54 µM, the IC50 [5] was 951 nM and the IC50 [6] was 1930 nM.
With `CCc1ccc(C(=O)n2nc(Nc3ccc(S(N)(=O)=O)cc3)nc2N)s1` [Cpd 32, 4-[[5-amino-1-[(5-ethyl-2-thienyl)carbonyl]-1H-1,2,4-triazol-3-yl]amino]-benzenesulfonamide] the IC50 [1] was greater than 100 µM, the IC50 [3, 9] was 0.003 µM and the IC50 [8, 10] was 0.009 µM. For the same compound, the IC50 [7] was 0.181 µM, the IC50 [4] was greater than 100 µM and the IC50 [5] was 30 nM. The IC50 [6] was 26 nM.
Work on `CC(C)(C)c1ccc(C(=O)n2nc(Nc3ccc(S(N)(=O)=O)cc3)nc2N)s1` [Cpd 51, 4-[[5-amino-1-[[5-(1,1-dimethylethyl)-2-thienyl]carbonyl]-1H-1,2,4-triazol-3-yl]amino]-benzenesulfonamide] yielded an IC50 [1] of 0.813 µM, an IC50 [2] of 333 nM and an IC50 [3, 9] of 0.02 µM. It also gave an IC50 [8, 10] of 0.031 µM, an IC50 ([8]; Table 1, read-out: HER2 IC50) of 0.031 µM and an IC50 [7] of 0.223 µM. It also gave an IC50 [4] of 0.911 µM and an IC50 [5] of 57 nM.
`CC(O)c1ccc(F)c(C(=O)n2nc(Nc3ccc(S(N)(=O)=O)cc3)nc2N)c1F` (stereo not shown) [Cpd 58, 4-[[5-amino-1-[2,6-difluoro-3-(1-hydroxyethyl)benzoyl]-1H-1,2,4-triazol-3-yl]amino]-benzenesulfonamide] showed an IC50 [1] greater than 100 µM, an IC50 [2] of 981 nM and an IC50 [3, 9] of 0.015 µM. It also gave an IC50 [8, 10] of 0.654 µM, an IC50 ([8]; Table 1, read-out: HER2 IC50) of 0.65 µM and an IC50 [7] of 11.2 µM. It also gave an IC50 [4] greater than 100 µM, an IC50 [5] of 362 nM and an IC50 [6] of 1270 nM.
`Cc1ccc(F)c(C(=O)n2nc(Nc3ccc(S(N)(=O)=O)cc3)nc2N)c1Cl` [Cpd 69, 4-[[5-amino-1-(2-chloro-6-fluoro-3-methylbenzoyl)-1H-1,2,4-triazol-3-yl]amino]-benzenesulfonamide] showed an IC50 [1] greater than 100 µM, an IC50 [2] of 441 nM and an IC50 [3, 9] of 0.147 µM. The IC50 [7] was 16.6 µM, the IC50 [4] was 46.6 µM and the IC50 [5] was 8 nM. For the same compound, the IC50 [6] was 1720 nM.
For `Nc1nc(Nc2ccc(S(N)(=O)=O)cc2)nn1C(=O)c1c(F)cccc1Cl` [Cpd 70, 4-[[5-amino-1-(2-chloro-6-fluorobenzoyl)-1H-1,2,4-triazol-3-yl]amino]-benzenesulfonamide], the IC50 [1] was greater than 100 µM, the IC50 [2] was 1100 nM and the IC50 [3, 9] was 0.22 µM. The IC50 [8, 10] was 1.23 µM, the IC50 ([8]; Table 1, read-out: HER2 IC50) was 1.23 µM and the IC50 [7] was 35.7 µM. The IC50 [4] was 34.2 µM, the IC50 [5] was 11 nM and the IC50 [6] was 1580 nM.
For `CNS(=O)(=O)c1ccc(Nc2nc(N)n(C(=O)c3c(F)ccc(C)c3F)n2)cc1` [Cpd 81, 4-[[5-amino-1-(2,6-difluoro-3-methylbenzoyl)-1H-1,2,4-triazol-3-yl]amino]-N-methyl-benzenesulfonamide], the IC50 [1] was greater than 100 µM, the IC50 [2] was 1770 nM and the IC50 [3, 9] was 0.049 µM. For the same compound, the IC50 [7] was 6.96 µM, the IC50 [4] was greater than 100 µM and the IC50 [5] was 25 nM. It also gave an IC50 [6] of 778 nM.
